Test results published in patent US11331299B2, “Medicinal use of serrulatane diterpenes” (The University of Sydney, priority 2016, dated 2022).
pEC50, pIC50: −log10 of the molar value. Where two headings read alike, the source gives them in different places.

Test system: 280 human cancer cell lines
Assay: OncoPanel cell proliferation assay (10-day)
Assay type: cell-based
Conditions: Homo sapiens; for pIC50: read-out: Cell Count IC50; for pEC50: read-out: Cell Count EC50; for GI50: read-out: Cell Count GI50
[1] = SJRH30, SJRH30, Soft Tissue - Sarcoma
[2] = SJSA-1, SJSA1, Soft Tissue - Osteosarcoma
[3] = SK-LMS-1, SK-LMS-1, Soft Tissue - Sarcoma
[4] = SK-MEL3, SK-MEL-3, Skin (Melanoma)
[5] = SK-MEL-1, SK-MEL-1, Skin (Melanoma)
[6] = SK-MEL-28, SK-MEL-28, Skin (Melanoma)
[7] = SK-OV-3, SKOV3, Female GU - Ovary
[8] = SK-UT-1, SK-UT-1, Soft Tissue - Sarcoma
[9] = SW579, SW579, Endocrine - Thyroid
[10] = SW684, SW684, Soft Tissue - Sarcoma

`CC(C)=CCC[C@H](C)[C@@H]1CC[C@@H](C)c2c1cc(C)c(O)c2O` [Compound 4, 7,8-dihydroxyserrulat-14-ene] was tested, and the pIC50 (SCaBER, Bladder) was 4.77, the pEC50 (SH-4, Skin (Melanoma)) was 4.94 and the GI50 (SH-4, Skin (Melanoma)) was 11.5 µM. For the same molecule, the pIC50 (SH-4, Skin (Melanoma)) was 4.94, the pEC50 (SHP77, SHP-77, Lung - SCLC) was 5.17 and the GI50 (SHP77, SHP-77, Lung - SCLC) was 6.75 µM. For the same molecule, the pIC50 (SHP77, SHP-77, Lung - SCLC) was 5.17, the pEC50 [1] was 5.43 and the GI50 [1] was 3.68 µM. It also gave a pIC50 [1] of 5.43, a pEC50 [2] of 5.13 and a GI50 [2] of 7.45 µM. The pIC50 [2] was 5.13, the pEC50 (SK-BR-3, SK-BR-3, Breast) was 4.99 and the GI50 (SK-BR-3, SK-BR-3, Breast) was 9.97 µM. It also gave a pIC50 (SK-BR-3, SK-BR-3, Breast) of 4.99, a pEC50 [3] of 5.04 and a GI50 [3] of 8.98 µM. The pIC50 [3] was 5.04, the pEC50 [4] was < 4.52 and the GI50 [4] was > 30 µM. For the same molecule, the pIC50 [4] was < 4.52, the pEC50 [5] was < 4.52 and the GI50 [5] was > 30 µM. The pIC50 [5] was < 4.52, the pEC50 [6] was 4.95 and the GI50 [6] was 11.1 µM. The pIC50 [6] was 4.95, the pEC50 (SK-MES-1, SKMES1, Lung - NSCLC) was 4.94 and the GI50 (SK-MES-1, SKMES1, Lung - NSCLC) was 11.5 µM. It also gave a pIC50 (SK-MES-1, SKMES1, Lung - NSCLC) of 4.94, a pEC50 (SK-N-AS, CNS - Neuroblastoma) of 5.23 and a GI50 (SK-N-AS, CNS - Neuroblastoma) of 5.75 µM. The pIC50 (SK-N-AS, CNS - Neuroblastoma) was 5.23, the pEC50 (SK-N-DZ, CNS - Neuroblastoma) was 4.92 and the GI50 (SK-N-DZ, CNS - Neuroblastoma) was 11.5 µM. For the same molecule, the pIC50 (SK-N-DZ, CNS - Neuroblastoma) was 4.92, the pEC50 (SK-N-FI, CNS - Neuroblastoma) was 4.67 and the GI50 (SK-N-FI, CNS - Neuroblastoma) was 20.6 µM. For the same molecule, the pIC50 (SK-N-FI, CNS - Neuroblastoma) was 4.67, the pEC50 [7] was 5.07 and the GI50 [7] was 8.33 µM. The pIC50 [7] was 5.07, the pEC50 (SK-PN-DW, Stomach) was 5.31 and the GI50 (SK-PN-DW, Stomach) was 4.88 µM. It also gave a pIC50 (SK-PN-DW, Stomach) of 5.31, a pEC50 [8] of 5.26 and a GI50 [8] of 5.46 µM. It also gave a pIC50 [8] of 5.26, a pEC50 (SKO-007, SKO-007, Myeloma) of 5.33 and a GI50 (SKO-007, SKO-007, Myeloma) of 4.55 µM. For the same molecule, the pIC50 (SKO-007, SKO-007, Myeloma) was 5.33, the pEC50 (SNB-19, SNB-19, CNS - Glioma) was 4.89 and the GI50 (SNB-19, SNB-19, CNS - Glioma) was 12.9 µM. The pIC50 (SNB-19, SNB-19, CNS - Glioma) was 4.89, the pEC50 (SNU1, SNU-1, Stomach) was 5.16 and the GI50 (SNU1, SNU-1, Stomach) was 6.98 µM. It also gave a pIC50 (SNU1, SNU-1, Stomach) of 5.16, a pEC50 (SNU-5, SNU-5, Stomach) of 4.84 and a GI50 (SNU-5, SNU-5, Stomach) of 14.2 µM. For the same molecule, the pIC50 (SNU-5, SNU-5, Stomach) was 4.84, the pEC50 (SNU-16, SNU-16, Stomach) was 4.96 and the GI50 (SNU-16, SNU-16, Stomach) was 11 µM. The pIC50 (SNU-16, SNU-16, Stomach) was 4.96, the pEC50 (SNU-423, SNU-423, Liver) was 5.03 and the GI50 (SNU-423, SNU-423, Liver) was 9.28 µM. It also gave a pIC50 (SNU-423, SNU-423, Liver) of 5.03, a pEC50 (SR, Lymphoma) of 5.36 and a GI50 (SR, Lymphoma) of 4.39 µM. The pIC50 (SR, Lymphoma) was 5.36, the pEC50 (ST486, ST486, Lymphoma) was 5.58 and the GI50 (ST486, ST486, Lymphoma) was 2.65 µM. For the same molecule, the pIC50 (ST486, ST486, Lymphoma) was 5.58, the pEC50 (SU-DHL10, SU-DHL-10, Lymphoma) was 5.11 and the GI50 (SU-DHL10, SU-DHL-10, Lymphoma) was 7.67 µM. For the same molecule, the pIC50 (SU-DHL10, SU-DHL-10, Lymphoma) was 5.11, the pEC50 (SU-DHL-4, SU-DHL-4, Lymphoma) was 5.24 and the GI50 (SU-DHL-4, SU-DHL-4, Lymphoma) was 5.74 µM. The pIC50 (SU-DHL-4, SU-DHL-4, Lymphoma) was 5.24, the pEC50 (SU-DHL-5, SU-DHL-5, Lymphoma) was 5.42 and the GI50 (SU-DHL-5, SU-DHL-5, Lymphoma) was 3.8 µM. The pIC50 (SU-DHL-5, SU-DHL-5, Lymphoma) was 5.42, the pEC50 (SU-DHL-8, SU-DHL-8, Lymphoma) was 5.41 and the GI50 (SU-DHL-8, SU-DHL-8, Lymphoma) was 3.9 µM. The pIC50 (SU-DHL-8, SU-DHL-8, Lymphoma) was 5.41, the pEC50 (SU.86.86, SU.86.86, Pancreas) was < 4.52 and the GI50 (SU.86.86, SU.86.86, Pancreas) was > 30 µM. The pIC50 (SU.86.86, SU.86.86, Pancreas) was < 4.52, the pEC50 (SUP-T1, SUP-T1, Lymphoma) was 5.19 and the GI50 (SUP-T1, SUP-T1, Lymphoma) was 6.49 µM. The pIC50 (SUP-T1, SUP-T1, Lymphoma) was 5.19, the pEC50 (SW48, SW48, Colon) was 4.89 and the GI50 (SW48, SW48, Colon) was 13 µM. The pIC50 (SW48, SW48, Colon) was 4.89, the pEC50 [9] was 4.96 and the GI50 [9] was 11 µM. The pIC50 [9] was 4.96, the pEC50 [10] was < 4.52 and the GI50 [10] was > 30 µM. For the same molecule, the pIC50 [10] was < 4.52 and the pEC50 (SW837, SW837, Colon) was 4.72.
